Assay [1] addresses T1, Retinoic acid receptor beta (Homo sapiens, UniProt P10826).
T1 sequence (P10826 whole entry): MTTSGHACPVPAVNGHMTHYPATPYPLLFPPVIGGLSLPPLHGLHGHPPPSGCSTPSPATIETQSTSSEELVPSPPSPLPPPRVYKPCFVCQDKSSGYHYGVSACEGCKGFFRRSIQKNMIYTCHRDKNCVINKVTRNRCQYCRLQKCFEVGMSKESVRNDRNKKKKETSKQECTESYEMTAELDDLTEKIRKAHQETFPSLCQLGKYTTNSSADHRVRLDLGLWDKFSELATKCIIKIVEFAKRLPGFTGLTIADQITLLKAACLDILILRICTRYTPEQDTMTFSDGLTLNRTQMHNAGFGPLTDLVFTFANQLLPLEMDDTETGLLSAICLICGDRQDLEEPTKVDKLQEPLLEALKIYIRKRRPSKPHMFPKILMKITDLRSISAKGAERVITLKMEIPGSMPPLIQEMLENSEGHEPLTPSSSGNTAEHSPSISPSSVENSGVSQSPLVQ
In words: Inhibition of [3H]ATRA binding to baculovirus expressed Retinoic acid receptor RAR beta.

In assay [2] the target is T2, Retinoic acid receptor gamma (Homo sapiens, UniProt P13631).
T2 sequence (P13631 whole entry): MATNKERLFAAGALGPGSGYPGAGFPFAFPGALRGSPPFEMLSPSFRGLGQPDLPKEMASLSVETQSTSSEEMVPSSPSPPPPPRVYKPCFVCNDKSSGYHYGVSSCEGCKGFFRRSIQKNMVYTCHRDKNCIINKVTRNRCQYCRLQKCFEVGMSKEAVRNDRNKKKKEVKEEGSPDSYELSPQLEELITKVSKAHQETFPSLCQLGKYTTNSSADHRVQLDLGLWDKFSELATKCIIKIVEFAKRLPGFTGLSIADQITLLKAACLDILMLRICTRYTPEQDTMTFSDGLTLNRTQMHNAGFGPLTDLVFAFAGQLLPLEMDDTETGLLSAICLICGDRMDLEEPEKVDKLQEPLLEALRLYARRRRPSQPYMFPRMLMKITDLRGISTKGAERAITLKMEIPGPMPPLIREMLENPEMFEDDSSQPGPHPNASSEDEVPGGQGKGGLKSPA
Description: Inhibition of [3H]ATRA binding to baculovirus expressed Retinoic acid receptor RAR gamma.

Assay [3] deals with T1, Retinoic acid receptor beta. Description: Transcriptional activation in CV-1 cells expressing Retinoic acid receptor RAR beta. The class given is cell-based.
The target of assay [4] is T3, Retinoic acid receptor alpha (Homo sapiens, UniProt P10276).
T3 sequence (P10276 whole entry): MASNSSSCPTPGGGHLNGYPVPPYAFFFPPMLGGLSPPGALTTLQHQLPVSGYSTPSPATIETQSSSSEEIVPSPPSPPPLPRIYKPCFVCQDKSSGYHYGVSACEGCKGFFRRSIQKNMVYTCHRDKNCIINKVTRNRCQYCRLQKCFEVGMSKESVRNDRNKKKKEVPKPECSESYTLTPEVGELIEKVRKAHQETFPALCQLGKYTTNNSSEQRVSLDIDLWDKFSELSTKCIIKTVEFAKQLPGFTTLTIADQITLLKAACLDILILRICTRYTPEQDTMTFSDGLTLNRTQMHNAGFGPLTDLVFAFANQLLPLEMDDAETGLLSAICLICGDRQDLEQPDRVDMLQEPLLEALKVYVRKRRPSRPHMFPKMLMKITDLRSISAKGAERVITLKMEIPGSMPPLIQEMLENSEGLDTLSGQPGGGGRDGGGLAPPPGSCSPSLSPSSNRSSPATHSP
Description: Inhibition of [3H]ATRA binding to baculovirus expressed Retinoic acid receptor RAR alpha.

Assay [5] addresses T4, Retinoic acid receptor beta (Homo sapiens) (UniProt P10826).
T4 sequence (whole entry): T1 sequence (P10826 whole entry)
Description: Relative efficacy for Retinoic acid receptor beta compared to maximal retinoic acid response.

Take `CC1(C)CC=C(c2cccs2)c2cc(C(=O)Oc3ccc(C(=O)O)cc3)ccc21`: the Kd stood at 189 nM in assay [1], 1490 nM in assay [2] and 303 nM in assay [4]. Also, the EC50 in assay [3] was 26 nM. Moreover, the Eff in assay [5] was 47%.
For `CC1(C)CC=C(c2cccs2)c2cc(C#Cc3ccc(C(=O)O)cc3)ccc21`, the Kd in assay [1] is 20 nM; in assay [2] it was 104 nM; in assay [4], 129 nM. This compound gave an EC50 in assay [3] of 25 nM. In assay [5], this compound displayed an Eff of 32%.
Regarding `CC1(C)CC=C(c2cccs2)c2cc(C(=O)Nc3ccc(C(=O)O)cc3)ccc21`, the Kd was 996 nM in assay [1], above 10000 nM in assay [2] and 94 nM in assay [4]. Besides, the EC50 in assay [3] was 115 nM. The same compound registered an Eff in assay [5] of 61%.

For the origin of these results see ChEMBL document CHEMBL1129600, “Identification of retinoic acid receptor beta subtype specific agonists” (J Med Chem, 1996).
